Laboratory results from paper PMC11702208 (RSC Advances, 2025).
Read-outs that look alike come from different tables or passages of the source.

Assays:
Assay type in all cases: cell-based, human
MDA-MB-435 = experiment: NCI cytotoxicity screen; settings: Homo sapiens
[1] = tested on: Renal cancer subpanel tumor cell lines; experiment: NCI cytotoxicity screen, subpanel
[2] = tested on: Ovarian cancer subpanel tumor cell lines; experiment: NCI cytotoxicity screen, subpanel; settings: for GI50 / TGI: subpanel value, Ovarian cancer
OVCAR-3 = experiment: NCI cytotoxicity screen; settings: Homo sapiens, OVCAR-3
BT-549 = experiment: NCI cytotoxicity screen; settings: Homo sapiens
59 cancer cell lines = experiment: NCI cytotoxicity screen, full panel; settings: for GI50: read-out: GI50 MG_MID
[3] = tested on: CNS cancer subpanel tumor cell lines; experiment: NCI cytotoxicity screen, subpanel; settings: for GI50 / TGI: subpanel value, CNS cancer
A498 = experiment: NCI cytotoxicity screen; settings: Homo sapiens, A498
HOP-62 = experiment: NCI cytotoxicity screen; settings: Homo sapiens
PC-3 = experiment: NCI cytotoxicity screen; settings: Homo sapiens
NCI-H226 = experiment: NCI cytotoxicity screen; settings: Homo sapiens
COLO 205 = experiment: NCI cytotoxicity screen; settings: Homo sapiens, COLO 205
SK-MEL-2 = experiment: NCI cytotoxicity screen; settings: Homo sapiens
UACC-257 = experiment: NCI cytotoxicity screen; settings: Homo sapiens
TK-10 = experiment: NCI cytotoxicity screen; settings: Homo sapiens
SK-MEL-28 = experiment: NCI cytotoxicity screen; settings: Homo sapiens
CCRF-CEM = experiment: NCI cytotoxicity screen; settings: Homo sapiens
OVCAR-8 = experiment: NCI cytotoxicity screen; settings: Homo sapiens
IGROV1 = experiment: NCI cytotoxicity screen; settings: Homo sapiens, IGROV-1
EKVX = experiment: NCI cytotoxicity screen; settings: Homo sapiens
MDA-MB-468 = experiment: NCI cytotoxicity screen; settings: Homo sapiens
NCI/ADR-RES = experiment: NCI cytotoxicity screen; settings: Homo sapiens, five-dose
HCT-15 = experiment: NCI cytotoxicity screen; settings: Homo sapiens
[4] = tested on: Colon cancer subpanel tumor cell lines; experiment: NCI cytotoxicity screen, subpanel; settings: for GI50 / TGI: subpanel value, Colon cancer
HCC-2998 = experiment: NCI cytotoxicity screen; settings: Homo sapiens, HCC 2998
[5] = full panel mean-graph midpoint, listed as gefitinib

| SMILES | GI50 (MDA-MB-435) | GI50 [2] | TGI [2] | GI50 (OVCAR-3) | GI50 (BT-549) | TGI MG_MID (59 cancer cell lines; full panel mean-graph midpoint) | GI50 (59 cancer cell lines; full panel mean-graph midpoint) | GI50 ([3]; Homo sapiens) | GI50 [3] | TGI [3] | GI50 (A498) | GI50 (HOP-62) | GI50 (NCI-H226) | GI50 (SK-MEL-2) | GI50 (TK-10) | GI50 (SK-MEL-28) | GI50 (CCRF-CEM) | GI50 (OVCAR-8) | GI50 (IGROV1) | GI50 (EKVX) | also measured |
| --- | --- | --- | --- | --- | --- | --- | --- | --- | --- | --- | --- | --- | --- | --- | --- | --- | --- | --- | --- | --- | --- |
| C#Cc1cccc(Nc2ncnc3cc(OCCOC)c(OCCOC)cc23)c1 [Erlotinib, reference compound] | 15.8 µM | 5.52 µM | 74.41 µM | 3.16 µM | 39.8 µM | 66.3 µM | 7.68 µM | 17 µM | 17 µM | 82.11 µM | 1.58 µM | 12.6 µM | 6.3 µM | 12.6 µM | 0.1 µM | 31.6 µM | 15.8 µM | 7.94 µM | 0.25 µM | 0.005 µM | CC50 ([1]; Homo sapiens, read-out: LC50): 89.2 µM; GI50 ([1]; Homo sapiens, subpanel value, Renal cancer): 2.5 µM; GI50 ([1]; subpanel value, Renal cancer): 2.46 µM; TGI ([1]; subpanel value, Renal cancer): 42.59 µM; CC50 ([2]; Homo sapiens, read-out: LC50): 97.1 µM; TGI MG_MID (59 cancer cell lines; full panel mean-graph midpoint, listed as erlotinib): 14.3 µM; CC50 (59 cancer cell lines; read-out: LC50 MG_MID, full panel mean-graph midpoint): 95.6 µM; CC50 (59 cancer cell lines; read-out: LC50 MG_MID, full panel mean-graph midpoint, listed as erlotinib): 14.3 µM; CC50 ([3]; Homo sapiens, read-out: LC50): > 100 µM; GI50 (PC-3): 50.1 µM; GI50 (COLO 205): 31.6 µM; GI50 (UACC-257): 100 µM; GI50 (MDA-MB-468): 0.2 µM; GI50 (NCI/ADR-RES): 6.3 µM; GI50 (HCT-15): 3.16 µM; CC50 ([4]; Homo sapiens, read-out: LC50): > 100 µM; GI50 ([4]; Homo sapiens): 51.7 µM; GI50 [4]: 51.7 µM; TGI [4]: c (Compounds showed values > 100 μM); GI50 (HCC-2998): 79.3 µM |
| COc1cc2ncnc(Nc3ccc(F)c(Cl)c3)c2cc1OCCCN1CCOCC1 [Gefitinib, reference compound] | 3.16 µM | 3.05 µM | 33.29 µM | 5.01 µM | 7.94 µM | 14.3 µM | 2.1 µM | 5.6 µM | 5.64 µM | 19.62 µM | 0.4 µM | 10 µM | 15.8 µM | 12.6 µM | 0.1 µM | 0.31 µM | 5.01 µM | 10 µM | 0.2 µM | 0.005 µM | GI50 ([2]; Homo sapiens): 3.3 µM; CC50 (59 cancer cell lines; Homo sapiens, read-out: LC50 MG_MID, full panel mean-graph midpoint): 95.6 µM; TGI MG_MID (59 cancer cell lines; [5]): 66.3 µM; GI50 (59 cancer cell lines; [5]): 7.7 µM; GI50 (MDA-MB-468): 0.01 µM; GI50 (NCI/ADR-RES): 12.6 µM; GI50 (HCT-15): 5.01 µM; GI50 ([4]; Homo sapiens): 5.2 µM; GI50 [4]: 5.23 µM; TGI [4]: 18.47 µM; GI50 (HCC-2998): 10 µM |
